From patent US12577226B2, “Compounds for treating Huntington's disease” (PTC THERAPEUTICS, INC., priority 2019, dated 2026)

tested on: Endogenous Huntingtin Protein (capture with MW1 (expanded polyglutamine) or MAB2166 antibody); test: Endogenous Huntingtin Protein Assay (ELISA-based Meso Scale Discovery electrochemiluminescence assay); format: cell-based; conditions: MSD electrochemiluminescence platform
Experimental: Compounds of Formula (I), Formula (II), or Formula (III) were tested using the Meso Scale Discovery (MSD) Assay provided in International Application No. PCT/US2016/066042, filed on Dec. 11, 2016 and claiming priority to U.S. Provisional Application U.S. 62/265,652 filed on Dec. 10, 2015, the entire contents of which are incorporated herein by reference.
The Endogenous Huntingtin Protein assay used in Example 1 was developed using the ELISA-based MSD electrochemiluminescence assay platform.
Meso Scale Discovery (MSD) 96-well or 384-well plates were coated overnight at 4° C. with MW1 (expanded polyglutamine) or MAB2166 monoclonal antibody (for capture) at a concentration of 1 μg/mL in PBS (30 μL per well). Plates were then washed three times with 300 μL wash buffer (0.05% Tween-20 in PBS) and blocked (100 μL blocking buffer; 5% BSA in PBS) for 4-5 hours at room temperature with rotational shaking and then washed three times with wash buffer.
Samples (25 μL) were transferred to the antibody-coated MSD plate and incubated overnight at 4° C. After removal of the lysates, the plate was washed three times with wash buffer, and 25 μL of #5656S (Cell signaling; rabbit monoclonal) secondary antibody (diluted to 0.25 μg/mL in 0.05% Tween-20 in blocking buffer) was added to each well and incubated with shaking for 1 Hour at room temperature. Following incubation with the secondary antibody, the wells were rinsed with wash buffer after which 25 μL of goat anti-rabbit SULFO TAG secondary detection antibody (required aspect of the MSD system) (diluted to 0.25 μg/mL in 0.05% Tween-20 in blocking buffer) was added to each well and incubated with shaking for 1 hour at room temperature. After rinsing three times with wash buffer, 150 μL of read buffer T with surfactant (MSD) were added to each empty well, and the plate was imaged on a SI 6000 imager (MSD) according to manufacturers' instructions provided for 96- or 384-well plates.

Compared with `Cc1cnc(Nc2cnc(-c3cnc(N4CCN[C@@H](C(C)C)C4)nn3)c(O)c2)cn1` [Compound 154, 5-[(5-methylpyrazin-2-yl)amino]-2-[3-[(3S)-3-(propan-2-yl)piperazin-1-yl]-1,2,4-triazin-6-yl}pyridin-3-ol], `CC1CN(c2ccc(-c3ncc(NCc4ccncc4)cc3O)nn2)CCN1` (centres unmarked) [Compound 111, 2-[6-(3-methylpiperazin-1-yl)pyridazin-3-yl]-5-{[(pyridin-4-yl)methyl]amino}pyridin-3-ol] is higher in IC50: no more than 100 nM for the first, 500 to 1000 nM for the second.

`CC[C@H]1CN(c2ccc(-c3ncc(-c4cn[nH]c4)cc3O)nn2)CCN1` [Compound 132, 2-{6-[(3S)-3-ethylpiperazin-1-yl]pyridazin-3-yl}-5-(1H-pyrazol-4-yl)pyridin-3-ol] and `COc1cc(-c2cnc(-c3ccc(N4CCNC(C)C4)nn3)c(O)c2)cc2cn(C)nc12` (centres unmarked) [Compound 95, 5-(7-methoxy-2-methyl-2H-indazol-5-yl)-2-[6-(3-methylpiperazin-1-yl)pyridazin-3-yl]pyridin-3-ol] cannot be ordered by IC50: no more than 100 nM for the first, no more than 100 nM for the second.

`Cc1cn2cc(-c3cnc(-c4cnc(N5CC[C@@H](NC(C)(C)C)C5)nn4)c(O)c3)cc(C#N)c2n1` [Compound 147, 6-(6-{3-[(3R)-3-(tert-butylamino)pyrrolidin-1-yl]-1,2,4-triazin-6-yl}-5-hydroxypyridin-3-yl)-2-methylimidazo[1,2-a]pyridine-8-carbonitrile] and `Cc1cn2nc(-c3cnc(-c4ccc(O[C@H]5CC(C)(C)NC(C)(C)[C@H]5F)nn4)c(O)c3)cc(C)c2n1` [Compound 38, 5-(2,8-dimethylimidazo[1,2-b]pyridazin-6-yl)-2-(6-{ [(3R,4S)-3-fluoro-2,2,6,6-tetramethylpiperidin-4-yl]oxy}pyridazin-3-yl)pyridin-3-ol or 5-(2,8-dimethylimidazo[1,2-b]pyridazin-6-yl)-2-(6-{ [(3S,4R)-3-fluoro-2,2,6,6-tetramethylpiperidin-4-yl]oxy}pyridazin-3-yl)pyridin-3-ol] cannot be ordered by IC50: 100 to 500 nM for the first, no more than 100 nM for the second.

`C[C@@H]1CN(c2ccc(-c3ncc(-c4cc(F)c5nn(C)cc5c4)cc3O)nn2)C[C@H](C)N1` [Compound 69, 2-{6-[(3R,5S)-3,5-dimethylpiperazin-1-yl]pyridazin-3-yl}-5-(7-fluoro-2-methyl-2H-indazol-5-yl)pyridin-3-ol and 2-{6-[(3S,5R)-3,5-dimethylpiperazin-1-yl]pyridazin-3-yl}-5-(7-fluoro-2-methyl-2H-indazol-5-yl)pyridin-3-ol] and `CN1CCN(c2ccc(-c3ncc(-c4cc(F)c5nn(C)cc5c4)cc3O)nn2)CC1` [Compound 101, 5-(7-fluoro-2-methyl-2H-indazol-5-yl)-2-[6-(4-methylpiperazin-1-yl)pyridazin-3-yl]pyridin-3-ol] cannot be ordered by IC50: no more than 100 nM for the first, no more than 100 nM for the second.

`CC1(C)C[C@@H](Oc2ccc(-c3ncc(-c4cn[nH]c4F)cc3O)nn2)[C@@H](F)C(C)(C)N1` [Compound 40, 5-(5-fluoro-1H-pyrazol-4-yl)-2-(6-{[(3S,4R)-3-fluoro-2,2,6,6-tetramethylpiperidin-4-yl]oxy}pyridazin-3-yl)pyridin-3-ol] and `CC1(C)C[C@@H](Oc2ccc(-c3ncc(-c4cn[nH]c4)cc3O)nn2)[C@@H](F)C(C)(C)N1` (single isomer, unassigned) [Compound 39, 2-(6-{[(3S,4R)-3-fluoro-2,2,6,6-tetramethylpiperidin-4-yl]oxy}pyridazin-3-yl)-5-(1H-pyrazol-4-yl)pyridin-3-ol or 2-(6-{[(3S,4R)-3-fluoro-2,2,6,6-tetramethylpiperidin-4-yl]oxy}pyridazin-3-yl)-5-(1H-pyrazol-4-yl)pyridin-3-ol] cannot be ordered by IC50: no more than 100 nM for the first, no more than 100 nM for the second.

Compound `Cn1cc2cc(-c3cnc(-c4ccc(OC5CC(C)(C)NC(C)(C)C5)nn4)c(O)c3)cc(F)c2n1` [Compound 52, 5-(7-fluoro-2-methyl-2H-indazol-5-yl)-2-{6-[(2,2,6,6-tetramethylpiperidin-4-yl)oxy]pyridazin-3-yl}pyridin-3-ol] has an IC50 of no more than 100 nM.
